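Dose response: 5 concentrations. Exposure: 48 h. Format: 96-well plates. Endpoint: linear interpolation; highest concentration if not reached. GI50 marks 50% less growth. Definition used: TGI = concentration required for complete inhibition of growth.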
What was measured:
Test in all cases: DTP human tumour cell line panel, 48 h
[1] = tested on: ACHN renal
[2] = tested on: EKVX NSCLC
[3] = tested on: HOP-92 NSCLC
[4] = tested on: MCF7 breast
[5] = tested on: NCI/ADR-RES ovarian
[6] = tested on: OVCAR-4 ovarian
[7] = tested on: SF-295 CNS
[8] = tested on: SN12C renal
[9] = tested on: SW-620 colon
[10] = tested on: UO-31 renal

Compound	GI50 [1]	TGI [1]	GI50 [2]	TGI [2]	GI50 [3]	TGI [3]	GI50 [4]	TGI [4]	GI50 [5]	TGI [5]	GI50 [6]	TGI [6]	GI50 [7]	TGI [7]	GI50 [8]	TGI [8]	GI50 [9]	TGI [9]	GI50 [10]	TGI [10]
CCN1C(=O)CNc2ncc(-c3ccc(-c4ncn[nH]4)nc3C)nc21	0.14 µM	2.16 µM	0.188 µM	5.77 µM	0.0212 µM	0.168 µM	0.051 µM	10.7 µM	0.284 µM	3.58 µM	0.103 µM	1.13 µM	0.105 µM	0.679 µM	0.168 µM	14.9 µM	0.439 µM	12.1 µM	0.0248 µM	0.599 µM
COc1ccc(OC)c(/C=C/C(=O)N/N=C/c2ccc(Cl)cc2)c1	1.61 µM	> 100 µM	0.704 µM	> 100 µM	9.27 µM	75.2 µM	0.0529 µM	> 57 µM	0.0364 µM	0.215 µM	1.41 µM	> 100 µM	0.0701 µM	> 25.4 µM	0.488 µM	> 100 µM	0.0577 µM	> 100 µM	3.37 µM	> 100 µM
CN(C)CCCn1c2c(c3ccccc3c1=O)C(=O)c1ccccc1-2	0.507 µM	2.15 µM	11.3 µM	36.8 µM	0.421 µM	5.59 µM	0.554 µM	12.2 µM	1.85 µM	7.13 µM	3.15 µM	48.9 µM	1.12 µM	3.74 µM	0.907 µM	3.07 µM	0.771 µM	10.8 µM	2.5 µM	23.5 µM
COc1cc(C2=NN(C(C)=O)C(c3ccc(OC(C)=O)cc3OC(C)=O)O2)c(OC(C)=O)c2ccccc12 (stereo unspecified)	0.447 µM	> 35.6 µM			2.07 µM	30.7 µM	2.73 µM	16.1 µM	0.542 µM	> 51.8 µM	0.306 µM	8.64 µM	1.68 µM	23.8 µM	0.864 µM	> 43.8 µM	0.608 µM	27.5 µM	0.38 µM	7.12 µM
O=C(c1cccc(O)c1O)c1cn(Cc2ccc(F)cc2)c2cccc(O)c12	3.2 µM	14.9 µM	9.3 µM	> 54.4 µM	0.361 µM	7.44 µM	2.14 µM	13.1 µM	2.59 µM	15.2 µM	3.13 µM	16.2 µM	5.65 µM	> 46.5 µM	6.37 µM	21.7 µM	5.26 µM	19.9 µM	1.14 µM	5.24 µM
NC(N)=NCCCn1c2c(c3ccccc3c1=O)C(=O)c1ccccc1-2	18 µM	35.2 µM	16.6 µM	58.5 µM	3.2 µM	47.5 µM	7.27 µM	25.1 µM	38.6 µM	> 100 µM	55.6 µM	> 100 µM	1.66 µM	7.72 µM	0.229 µM	0.572 µM	14.5 µM	31 µM		
